From the supplement of paper PMC10627819

Key:
Experiment in all cases: fitness (endpoint OD595 vs no drug) (fraction); higher = more growth
[1] = test system: S. aureus DSM 20231
Outline: (§1)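 Cultures at OD595 0.01 were dispensed into 384-well plates in TSB, LB Lennox or CY and incubated at 37 °C. Every 30 min for 14 h, OD595 was read and corrected by the first reading. Fitness is the optical density at entry into stationary phase relative to the robust mean of no-drug control wells, capped at 1.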

[2] = test system: S. aureus Newman
Outline: as §1

[3] = test system: S. pneumoniae D39V
Outline: as §1

N[C@@H]1CONC1=O [Cycloserine D] + CO[C@@]12[C@H](COC(N)=O)C3=C(C(=O)C(C)=C(N)C3=O)N1C[C@@H]1N[C@@H]12 [Mitomycin C]
fitness
Conditions | first compound 0.375 µg/mL | first compound 0.75 µg/mL | first compound 1.5 µg/mL
[1], partner 0.0156 µg/mL | 0.746 | 0.739 | 0.71
[1], partner 0.0312 µg/mL | 0.716 | 0.716 | 0.711
[1], partner 0.0625 µg/mL | 0.528 | 0.542 | 0.513
[2], partner 0.0156 µg/mL | 0.682 | 0.71 | 0.732
[2], partner 0.0312 µg/mL | 0.656 | 0.651 | 0.693
[2], partner 0.0625 µg/mL | 0.567 | 0.5 | 0.555

N[C@@H]1CONC1=O [Cycloserine D] + Cn1nnc(-c2ccc(-c3ccc(N4C[C@H](CO)OC4=O)cc3F)cn2)n1 [Tedizolid]
fitness
Conditions | first compound 0.375 µg/mL | first compound 0.75 µg/mL | first compound 1.5 µg/mL
[1], partner 0.0625 µg/mL | 0.95 | 0.942 | 0.923
[1], partner 0.125 µg/mL | 0.738 | 0.802 | 0.827
[2], partner 0.0625 µg/mL | 0.956 | 0.938 | 0.99
[2], partner 0.125 µg/mL | 0.925 | 0.842 | 0.855

O=C(O[C@@H]1Cc2c(O)cc(O)cc2O[C@@H]1c1cc(O)c(O)c(O)c1)c1cc(O)c(O)c(O)c1 [EGCG] + CO/N=C(\C(=O)N[C@@H]1C(=O)N2C(C(=O)[O-])=C(C[N+]3(C)CCCC3)CS[C@H]12)c1csc(N)n1 [Cefepime]
fitness
Conditions | first compound 12.5 µg/mL | first compound 25 µg/mL | first compound 50 µg/mL
[1], partner 0.125 µg/mL | 0.736 | 0.725 | –
[1], partner 0.25 µg/mL | 0.634 | 0.563 | 0.583
[1], partner 0.5 µg/mL | 0.616 | 0.576 | 0.587
[2], partner 0.125 µg/mL | 0.789 | 0.722 | 0.72
[2], partner 0.25 µg/mL | 0.736 | 0.685 | 0.678
[2], partner 0.5 µg/mL | 0.656 | 0.724 | 0.657
[3], partner 0.007 µg/mL | 0.958 | 0.951 | 0.985
[3], partner 0.0078 µg/mL | ≥ 1 | 0.874 | 0.939
[3], partner 0.014 µg/mL | 0.998 | 0.987 | 0.998
[3], partner 0.0155 µg/mL | 0.96 | ≥ 1 | 0.931
[3], partner 0.028 µg/mL | 0.928 | 0.979 | 0.973
[3], partner 0.031 µg/mL | 0.733 | 0.716 | 0.853
